Results: the supplement of paper PMC10883282

Key:
Experiment in all cases: relative viability vs DMSO control (72 h) (fraction); higher = more viable cells
KHOS-240S = system: KHOS-240S
How it was run: (§1)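 Relative viability was measured with ATPLite and expressed as percent growth, averaged across up to triplicate wells. Sarcoma cell lines had been seeded in 384-well plates to reach 80–90% confluence, dosed after 24 h, and incubated 72 h at 37 °C, 5% CO2. All data were rescaled on a scale where 1 is full and 0 is none.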

RD-ES = system: RD-ES
How it was run: as §1

RD = system: RD
How it was run: as §1

SK-ES-1 = system: SK-ES-1
How it was run: as §1

SW982 = system: SW982
How it was run: as §1

C[C@@H](Oc1cc(-c2cnn(C3CCNCC3)c2)cnc1N)c1c(Cl)ccc(F)c1Cl [Crizotinib]
relative viability
Conditions	KHOS-240S	RD	RD-ES	SK-ES-1	SW982
0.00017 µM	1.04	1.08	0.969	1.03	1.04
0.00051 µM	1.05	1.07	0.96	1.01	1.03
0.00152 µM	1.06	1.106	0.963	1.05	1.03
0.00457 µM	1.05	1.09	0.95	1.052	1.05
0.01372 µM	1.05	1.1	0.963	1.06	1.03
0.04115 µM	1.05	1.1	0.972	1.03	1.03
0.1235 µM	1.04	1.09	0.911	0.979	0.954
0.3704 µM	0.992	0.88	0.745	0.673	0.628
1.111 µM	0.771	0.626	0.26	0.0655	0.328
3.333 µM	0.566	0.441	0.0918	0.0452	0.168
10 µM	0.0657	0.00437	0.00543	0.00363	0.00317

CCN(c1cc(-c2ccc(CN3CCOCC3)cc2)cc(C(=O)NCc2c(C)cc(C)[nH]c2=O)c1C)C1CCOCC1 [Tazemetostat]
relative viability
Conditions	KHOS-240S	RD	RD-ES	SK-ES-1	SW982
0.00017 µM	1.02	0.988	0.984	1.03	0.968
0.00051 µM	1.031	1	1	1.01	0.988
0.00152 µM	1.03	1.04	0.989	0.982	0.977
0.00457 µM	1.03	1.04	0.965	0.993	0.98
0.01372 µM	1.01	1.05	0.968	0.972	0.973
0.04115 µM	1.03	1.03	1.01	1.03	1.02
0.1235 µM	1.01	1.06	0.975	1.009	0.985
0.3704 µM	0.9861	1.03	0.971	0.998	0.951
1.111 µM	0.9866	1.04	1	0.991	0.958
3.333 µM	0.975	1.04	0.988	0.961	0.926
10 µM	0.925	1.03	0.98	0.995	0.932

CNC(=O)c1cc(Oc2ccc(NC(=O)Nc3ccc(Cl)c(C(F)(F)F)c3)cc2)ccn1 [Sorafenib]
relative viability
Conditions	KHOS-240S	RD	RD-ES	SK-ES-1	SW982
0.00017 µM	1.04	1.11	0.972	0.978	1.07
0.00051 µM	1.07	1.11	0.98	1.01	1.06
0.00152 µM	1.09	1.09	0.963	1.04	1.05
0.00457 µM	1.08	1.12	0.992	1.05	1.07
0.01372 µM	1.06	1.09	1	1.07	1.06
0.04115 µM	1.08	1.12	0.987	1.01	1.07
0.1235 µM	1.08	1.14	0.987	1.06	1.07
0.3704 µM	1.11	1.13	0.992	1.07	1.07
1.111 µM	1.05	1.04	0.994	0.96	1.06
3.333 µM	0.728	0.9	0.903	0.8855	0.992
10 µM	0.309	0.504	0.274	0.252	0.559

NC(=O)c1cccc2cn(-c3ccc([C@@H]4CCCNC4)cc3)nc12 [Niraparib]
relative viability
Conditions	KHOS-240S	RD	RD-ES	SK-ES-1	SW982
0.00017 µM	1.06	1.06	0.997	1.02	1.05
0.00051 µM	1.08	1.09	1.01	1.02	1.04
0.00152 µM	1.07	1.1	0.9697	1.01	1.05
0.00457 µM	1.07	1.117	0.988	1.01	1.02
0.01372 µM	1.06	1.09	0.966	1.02	1.06
0.04115 µM	1.07	1.12	0.966	0.975	1.07
0.1235 µM	1.06	1.08	0.962	0.8976	1.06
0.3704 µM	1.06	1.05	0.899	0.822	1.01
1.111 µM	1.03	1.006	0.783	0.525	0.926
3.333 µM	1.01	0.899	0.504	0.311	0.791
10 µM	0.877	0.784	0.0364	0.0804	0.635

Cc1cccc(-c2[nH]c(CNc3ccccc3F)nc2-c2ccc3ncnn3c2)n1 [Vactosertib]
relative viability
Conditions	KHOS-240S	RD	RD-ES	SK-ES-1	SW982
0.00017 µM	1.02	1.07	0.9791	0.986	0.9904
0.00051 µM	1.04	1.06	0.97	0.97	1.02
0.00152 µM	1.03	1.06	0.974	0.98	0.999
0.00457 µM	1.02	1.09	0.958	0.974	0.998
0.01372 µM	1.03	1.07	0.97	1.02	0.9987
0.04115 µM	1	1.09	0.973	1	1.03
0.1235 µM	0.992	1.07	0.971	1.04	1.01
0.3704 µM	0.966	1.09	0.964	1.02	0.984
1.111 µM	0.952	1.09	0.945	0.964	1
3.333 µM	0.885	1.07	0.925	1.01	1.02
10 µM	0.708	1.09	0.865	0.898	0.936

Cc1ccc(NC(=O)c2ccc(CN3CCN(C)CC3)cc2)cc1Nc1nccc(-c2cccnc2)n1 [Imatinib]
relative viability
Conditions	KHOS-240S	RD	RD-ES	SK-ES-1	SW982
0.00017 µM	0.98	0.964	0.954	0.937	0.985
0.00051 µM	0.977	0.974	0.957	0.98	0.972
0.00152 µM	0.9747	0.952	0.969	0.9529	0.973
0.00457 µM	0.98	0.967	0.952	0.9471	0.975
0.01372 µM	0.97	0.976	0.957	0.983	0.97
0.04115 µM	0.971	0.983	0.961	0.9614	0.98
0.1235 µM	0.953	0.95	0.967	0.977	0.963
0.3704 µM	0.929	0.943	0.962	0.97	0.979
1.111 µM	0.895	1.01	0.951	0.957	0.983
3.333 µM	0.794	1	0.923	0.841	0.96
10 µM	0.542	0.596	0.61	0.62	0.531

N#Cc1ccnc(N2C(=O)CC[C@H]2C(=O)N(c2cncc(F)c2)[C@H](C(=O)NC2CC(F)(F)C2)c2ccccc2Cl)c1 [Ivosidenib]
relative viability
Conditions	KHOS-240S	RD	RD-ES	SK-ES-1	SW982
0.00017 µM	1.03	1.04	0.948	0.941	1.02
0.00051 µM	1.04	1.02	0.976	0.962	0.981
0.00152 µM	1.04	1.03	1	0.984	0.987
0.00457 µM	1.057	1.05	0.977	1.02	1
0.01372 µM	1.04	1.05	0.996	0.988	0.996
0.04115 µM	1.046	1.06	0.986	1.01	1.01
0.1235 µM	1.02	1.07	1	1	0.984
0.3704 µM	1.03	1.03	1.02	0.965	0.966
1.111 µM	1.02	1.04	0.986	1	0.975
3.333 µM	1.022	1.02	0.973	0.978	0.982
10 µM	0.998	0.944	0.9403	0.983	0.971

C=CC(=O)Nc1cc(Nc2nccc(-c3cn(C)c4ccccc34)n2)c(OC)cc1N(C)CCN(C)C [Osimertinib]
relative viability
Conditions	KHOS-240S	RD	RD-ES	SK-ES-1	SW982
0.00017 µM	1.05	1.08	0.962	1	1.02
0.00051 µM	1.06	1.08	0.978	1.05	1.05
0.00152 µM	1.06	1.11	0.977	1.07	1.01
0.00457 µM	1.08	1.11	0.971	1.01	1.03
0.01372 µM	1.04	1.11	0.979	1.02	1.04
0.04115 µM	1.05	1.11	0.964	1.026	1.03
0.1235 µM	1.05	1.1	0.947	1	0.996
0.3704 µM	1.03	1.07	0.892	0.942	0.983
1.111 µM	0.926	1.02	0.775	0.762	0.881
3.333 µM	0.767	0.78	0.598	0.294	0.678
10 µM	0.167	0.0148	0.0212	0.011	0.017

Cc1cc(Nc2ncc(Cl)c(Nc3ccccc3S(=O)(=O)C(C)C)n2)c(OC(C)C)cc1C1CCNCC1 [Ceritinib]
relative viability
Conditions	KHOS-240S	RD	RD-ES	SK-ES-1	SW982
0.00017 µM	0.991	0.996	0.94	0.967	0.974
0.00051 µM	0.992	1.02	0.938	0.984	0.943
0.00152 µM	1	1.04	0.955	1	0.946
0.00457 µM	1.01	0.996	0.957	0.974	0.92
0.01372 µM	1.01	1.03	0.955	0.961	0.959
0.04115 µM	1.02	1.02	0.943	0.995	0.9674
0.1235 µM	0.9951	0.947	0.89	0.914	0.902
0.3704 µM	0.897	0.771	0.681	0.6537	0.765
1.111 µM	0.826	0.576	0.454	0.339	0.64
3.333 µM	0.439	0.381	0.304	0.102	0.311
10 µM	0.0022	0.001	0.00243	0.000733	0.00217

C[C@@H]1COC(Nc2ccc3ncnc(Nc4ccc(OCc5nccs5)c(Cl)c4)c3c2)=N1 [Varlitinib]
relative viability
Conditions	KHOS-240S	RD	RD-ES	SK-ES-1	SW982
0.00017 µM	1.02	0.983	0.968	0.975	0.982
0.00051 µM	1.03	0.984	1.01	0.974	1.01
0.00152 µM	1.02	0.997	0.957	0.976	0.966
0.00457 µM	1.05	1.02	0.985	0.99	0.974
0.01372 µM	1.048	0.998	0.975	0.971	0.986
0.04115 µM	1.05	1.02	0.991	0.997	0.993
0.1235 µM	1.05	1.05	1	0.967	0.984
0.3704 µM	0.996	1	0.948	0.962	0.932
1.111 µM	0.9899	1.04	0.961	0.948	0.918
3.333 µM	0.947	1.05	0.973	0.873	0.949
10 µM	0.849	1.05	0.89	0.671	0.883
